Reference: PubChem BioAssay (NCI)
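96-well plates; 48 h exposure; 5 concentrations. Endpoints by linear interpolation between flanking doses. Not reached: highest tested concentration assigned. The concentration for 50% growth inhibition is given as GI50. Definition used: TGI = concentration required for complete inhibition of growth.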

What was measured:
Assay in all cases: inhibition of tumour cell growth, NCI panel, 48 h
[1] = test system: 786-0 renal
[2] = test system: A498 renal
[3] = test system: A549 NSCLC
[4] = test system: ACHN renal
[5] = test system: BT-549 breast
[6] = test system: CAKI-1 renal
[7] = test system: CCRF-CEM leukemia
[8] = test system: COLO 205 colon
[9] = test system: DU-145 prostate
[10] = test system: EKVX NSCLC
[11] = test system: HCC-2998 colon
[12] = test system: HCT-116 colon
[13] = test system: HCT-15 colon
[14] = test system: HL-60(TB) leukemia
[15] = test system: HOP-62 NSCLC
[16] = test system: HOP-92 NSCLC
[17] = test system: HS 578T breast
[18] = test system: HT29 colon
[19] = test system: IGROV1 ovarian
[20] = test system: K-562 leukemia
[21] = test system: KM12 colon
[22] = test system: LOX IMVI melanoma
[23] = test system: M14 melanoma
[24] = test system: MALME-3M melanoma
[25] = test system: MCF7 breast
[26] = test system: MDA-MB-231 breast
[27] = test system: MDA-MB-435
[28] = test system: MOLT-4 leukemia
[29] = test system: NCI-H226 lung
[30] = test system: NCI-H23 lung
[31] = test system: NCI-H460 lung
[32] = test system: NCI-H522 lung
[33] = test system: NCI/ADR-RES ovarian
[34] = test system: OVCAR-3 ovarian
[35] = test system: OVCAR-4 ovarian
[36] = test system: OVCAR-5 ovarian
[37] = test system: OVCAR-8 ovarian
[38] = test system: PC-3 prostate
[39] = test system: RPMI-8226 leukemia
[40] = test system: RXF 393 renal
[41] = test system: SF-268 CNS
[42] = test system: SF-295 CNS
[43] = test system: SF-539 CNS
[44] = test system: SK-MEL-2 melanoma
[45] = test system: SK-MEL-28 melanoma
[46] = test system: SK-MEL-5 melanoma
[47] = test system: SK-OV-3 ovarian
[48] = test system: SN12C renal
[49] = test system: SNB-19 CNS
[50] = test system: SNB-75 CNS
[51] = test system: SR leukemia
[52] = test system: SW-620 colon
[53] = test system: T-47D breast
[54] = test system: TK-10 renal
[55] = test system: U251 CNS
[56] = test system: UACC-257 melanoma
[57] = test system: UACC-62 melanoma
[58] = test system: UO-31 renal

Q: What does the source list for `Cc1cc(Cc2cc(C)cc(C(C)(C)C)c2O)c(O)c(C(C)(C)C)c1`?
A: GI50 [1]: 11 µM; TGI [1]: 23 µM; GI50 [2]: 12.9 µM; TGI [2]: 25.5 µM; GI50 [3]: 3.86 µM; TGI [3]: 13.2 µM; GI50 [4]: 4.59 µM; TGI [4]: 15.4 µM; GI50 [5]: 11 µM; TGI [5]: 23.9 µM; GI50 [6]: 2.36 µM; TGI [6]: 8.03 µM; GI50 [7]: 9.98 µM; TGI [7]: > 100 µM; GI50 [8]: 6.73 µM; TGI [8]: 19.6 µM; GI50 [9]: 4.9 µM; TGI [9]: 16.6 µM; GI50 [10]: 2.81 µM; TGI [10]: 12.1 µM; GI50 [11]: 4.3 µM; TGI [11]: 15.9 µM; GI50 [12]: 3.13 µM; TGI [12]: 11.7 µM; GI50 [13]: 4.29 µM; TGI [13]: 14.5 µM; GI50 [14]: 10.5 µM; TGI [14]: > 100 µM; GI50 [15]: 14.1 µM; TGI [15]: 27.1 µM; GI50 [16]: 4.37 µM; TGI [16]: 16 µM; GI50 [17]: 11.2 µM; TGI [17]: 29.2 µM; GI50 [18]: 4.58 µM; TGI [18]: 15.6 µM; GI50 [19]: 5.24 µM; TGI [19]: 16.5 µM; GI50 [20]: 3.95 µM; TGI [20]: 19.8 µM; GI50 [21]: 3.79 µM; TGI [21]: 13.6 µM; GI50 [22]: 7.55 µM; TGI [22]: 20.2 µM; GI50 [23]: 11.1 µM; TGI [23]: 23 µM; GI50 [24]: 5.3 µM; TGI [24]: 20 µM; GI50 [25]: 3.47 µM; TGI [25]: 12.7 µM; GI50 [26]: 9.83 µM; TGI [26]: 21.7 µM; GI50 [27]: 7.82 µM; TGI [27]: 22.2 µM; GI50 [28]: 6.27 µM; TGI [28]: > 100 µM; GI50 [29]: 14.2 µM; TGI [29]: 30 µM; GI50 [30]: 4.23 µM; TGI [30]: 16.3 µM; GI50 [31]: 3.64 µM; TGI [31]: 12 µM; GI50 [32]: 4.16 µM; TGI [32]: 14.6 µM; GI50 [33]: 10.1 µM; TGI [33]: 21.8 µM; GI50 [34]: 3.97 µM; TGI [34]: 13.1 µM; GI50 [35]: 11.6 µM; TGI [35]: 23.9 µM; GI50 [36]: 14.4 µM; TGI [36]: 27.5 µM; GI50 [37]: 5.17 µM; TGI [37]: 16.4 µM; GI50 [38]: 5.15 µM; TGI [38]: 18.6 µM; GI50 [39]: 7.55 µM; TGI [39]: 57.2 µM; GI50 [40]: 6.37 µM; TGI [40]: 18.9 µM; GI50 [41]: 5.06 µM; TGI [41]: 17.3 µM; GI50 [42]: 2.54 µM; TGI [42]: 6.23 µM; GI50 [43]: 13.3 µM; TGI [43]: 26 µM; GI50 [44]: 15.1 µM; TGI [44]: 33.6 µM; GI50 [45]: 12.9 µM; TGI [45]: 25.6 µM; GI50 [46]: 10.6 µM; TGI [46]: 22.4 µM; GI50 [47]: 11.9 µM; TGI [47]: 24.2 µM; GI50 [48]: 11.9 µM; TGI [48]: 24.1 µM; GI50 [49]: 13.1 µM; TGI [49]: 25.8 µM; GI50 [50]: 11.9 µM; TGI [50]: 24.3 µM; GI50 [51]: 4.46 µM; TGI [51]: 45.9 µM; GI50 [52]: 4.47 µM; TGI [52]: 16 µM; GI50 [53]: 4.7 µM; TGI [53]: 16.8 µM; GI50 [54]: 8.22 µM; TGI [54]: 21.3 µM; GI50 [55]: 5.74 µM; TGI [55]: 17.5 µM; GI50 [56]: 9.55 µM; TGI [56]: 21.8 µM; GI50 [57]: 10.4 µM; TGI [57]: 22.2 µM; GI50 [58]: 4.58 µM; TGI [58]: 19 µM
